The values that follow come from patent publication US20220395496A1 (Hoffmann-La Roche Inc., priority 2019, published 2022).

The target in the assay is T1, human TLR7 (Homo sapiens, UniProt Q9NYK1).
T1 sequence (Q9NYK1 27-1049): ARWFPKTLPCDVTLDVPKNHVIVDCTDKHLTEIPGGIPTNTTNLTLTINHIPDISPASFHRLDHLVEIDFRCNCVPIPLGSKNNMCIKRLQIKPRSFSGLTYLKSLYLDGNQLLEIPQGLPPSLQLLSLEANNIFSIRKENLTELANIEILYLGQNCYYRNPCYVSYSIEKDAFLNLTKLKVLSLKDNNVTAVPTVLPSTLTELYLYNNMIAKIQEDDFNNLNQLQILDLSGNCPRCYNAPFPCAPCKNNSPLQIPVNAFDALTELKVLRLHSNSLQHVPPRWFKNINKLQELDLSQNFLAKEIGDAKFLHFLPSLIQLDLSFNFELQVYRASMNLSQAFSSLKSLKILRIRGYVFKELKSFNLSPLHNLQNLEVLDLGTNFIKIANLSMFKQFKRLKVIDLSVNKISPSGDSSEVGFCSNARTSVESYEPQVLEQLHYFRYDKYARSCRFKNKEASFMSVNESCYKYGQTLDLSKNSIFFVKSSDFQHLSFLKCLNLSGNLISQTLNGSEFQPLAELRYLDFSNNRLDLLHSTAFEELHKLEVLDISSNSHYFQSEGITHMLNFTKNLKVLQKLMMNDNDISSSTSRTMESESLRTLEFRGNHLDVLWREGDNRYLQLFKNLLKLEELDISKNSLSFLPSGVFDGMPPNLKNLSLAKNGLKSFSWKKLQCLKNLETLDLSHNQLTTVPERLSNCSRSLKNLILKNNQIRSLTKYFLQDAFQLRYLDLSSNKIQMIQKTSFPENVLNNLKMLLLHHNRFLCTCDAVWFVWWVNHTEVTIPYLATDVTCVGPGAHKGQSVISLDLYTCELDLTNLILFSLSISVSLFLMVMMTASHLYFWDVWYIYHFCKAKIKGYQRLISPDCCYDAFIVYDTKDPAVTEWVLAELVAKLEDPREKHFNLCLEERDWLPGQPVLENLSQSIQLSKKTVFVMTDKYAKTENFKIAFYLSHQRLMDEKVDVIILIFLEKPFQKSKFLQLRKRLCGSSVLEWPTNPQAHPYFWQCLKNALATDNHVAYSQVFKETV
The experiment in a line: HEK293-Blue-hTLR-7 cells assay (SEAP reporter, R848 stimulation). In kind it is cell-based. The note with it: HEK293-Blue-hTLR7 cells, R848, 20 hrs; lowest tested concentration 0.0032. How it is done: The following tests were carried out in order to determine the activity of the compounds of this invention in HEK293-Blue-hTLR-7/8/9 cells assay.
HEK293-Blue-hTLR-7 Cells Assay:
A stable HEK293-Blue-hTLR-7 cell line was purchased from InvivoGen (Cat. #: hkb-htlr7, San Diego, Calif., USA). These cells were originally designed for studying the stimulation of human TLR7 by monitoring the activation of NF-κB. A SEAP (secreted embryonic alkaline phosphatase) reporter gene was placed under the control of the IFN-β minimal promoter fused to five NF-κB and AP-1-binding sites. The SEAP was induced by activating NF-κB and AP-1 via stimulating HEK-Blue hTLR7 cells with TLR7 ligands. Therefore the reporter expression was declined by TLR7 antagonist under the stimulation of a ligand, such as R848 (Resiquimod), for incubation of 20 hrs. The cell culture supernatant SEAP reporter activity was determined using QUANTI-Blue™ kit (Cat. #: rep-qb1, Invivogen, San Diego, Calif., USA) at a wavelength of 640 nm, a detection medium that turns purple or blue in the presence of alkaline phosphatase.
HEK293-Blue-hTLR7 cells were incubated at a density of 250,000˜450,000 cells/mL in a volume of 170 μL in a 96-well plate in Dulbecco's Modified Eagle's medium (DMEM) containing 4.5 g/L glucose, 50 U/mL penicillin, […], […], 2 mM L-glutamine, 10% (v/v) heat-inactivated fetal bovine serum with addition of 20 μL test compound in a serial dilution in the presence of final DMSO at 1% and 10 μL of 20 uM R848 in above DMEM, perform incubation under 37° C. in a CO2 incubator for 20 hrs. Then 20 μL of the supernatant from each well was incubated with 180 μL Quanti-blue substrate solution at 37° C. for 2 hrs and the absorbance was read at 620-655 nm using a spectrophotometer. The signalling pathway that TLR7 activation leads to downstream NF-κB activation has been widely accepted, and therefore similar reporter assay was modified for evaluating TLR7 antagonist.
A word on the IC50: it is the concentration needed to halve the response being measured. Lower therefore signals inhibition by little substance. Take `C[C@H]1C[C@@H](NCc2ccc(N3CCNCC3)cc2)CN(c2ccc(C#N)c3nccnc23)C1` [Example 3, 8-[(3S,5R)-3-methyl-5-[(4-piperazin-1-ylphenyl)methylamino]-1-piperidyl]quinoxaline-5-carbonitrile]: the half-inhibitory concentration (IC50) stood at 30 nM. With `C[C@H]1C[C@@H](NCc2ccc(N3CCNCC3)cc2)CN(c2ccc(Cl)c3ncccc23)C1` [Example 22, (3R,5S)-1-(8-chloro-5-quinolyl)-5-methyl-N-[(4-piperazin-1-ylphenyl)methyl]piperidin-3-amine] the figure was 23 nM; with `C[C@H]1C[C@@H](N2Cc3ccc(N4CCNCC4)cc3C2)CN(c2ccc(C#N)c3ncccc23)C1` [Example 12, 5-[(3S,5R)-3-methyl-5-(5-piperazin-1-ylisoindolin-2-yl)-1-piperidyl]quinoline-8-carbonitrile], 7 nM. With `C[C@H]1C[C@@H](NCc2ccc(N3CCNCC3)cn2)CN(c2ccc(C#N)c3ncccc23)C1` [Example 5, 5-[(3S,5R)-3-methyl-5-[(5-piperazin-1-yl-2-pyridyl)methylamino]-1-piperidyl]quinoline-8-carbonitrile] the figure was 17 nM; with `C[C@H]1C[C@@H](NCc2ccc(N3CCN(C)CC3)cc2)CN(c2ccc(C#N)c3ncccc23)C1` [Example 7, 5-[(3S,5R)-3-methyl-5-[[4-(4-methylpiperazin-1-yl)phenyl]methylamino]-1-piperidyl]quinoline-8-carbonitrile], 16 nM.
